We go through 24 molecules from patent US20200361871A1 (Enterprise Therapeutics Ltd., priority 2018, published 2020).

SMILES strings stand for the structures.

This assay deals with human TMEM16A (TMEM16Aabc variant) (Homo sapiens, UniProt Q5XXA6, DEL476-501, form not given). Nature of the assay: Automated whole-cell patch clamp (Qpatch) TMEM16A potentiator assay in FRT cells stably expressing human TMEM16A. The class given is cell-based. Conditions: for % Potentiation @ 3.33 μM Avg: 3.33 μM solution of test compound, percentage increase of baseline TMEM16A current; for EC50: calculated EC50, Qpatch TMEM16A current at +70 mV. The text has this: FIG. 1 is an example trace from a whole-cell patch clamp (Qpatch) TMEM16A potentiator assay as used in Biological Example 95 and illustrates the methodology used in the assay. In FIG. 1: S is Saline; V is Vehicle; #1 is Test Compound concentration #1; #2 is Test Compound concentration 2; #3 is Test Compound concentration 3; #4 is Test Compound concentration 4; #5 is Test Compound concentration #5; and R is Reference. The arrow in column V represents the baseline current, IBL. The arrows in each of the columns #1, #2, #3, #4, #5 and R represent I#[1], I#[2], I#[3], I#[4], I#[5] and I[Ref], which are the peak currents during the incubation periods for test compounds concentrations #1 to #5 and the Reference.
Chain of human TMEM16A (TMEM16Aabc variant) (Q5XXA6 with tags, fused parts or gaps DEL476-501): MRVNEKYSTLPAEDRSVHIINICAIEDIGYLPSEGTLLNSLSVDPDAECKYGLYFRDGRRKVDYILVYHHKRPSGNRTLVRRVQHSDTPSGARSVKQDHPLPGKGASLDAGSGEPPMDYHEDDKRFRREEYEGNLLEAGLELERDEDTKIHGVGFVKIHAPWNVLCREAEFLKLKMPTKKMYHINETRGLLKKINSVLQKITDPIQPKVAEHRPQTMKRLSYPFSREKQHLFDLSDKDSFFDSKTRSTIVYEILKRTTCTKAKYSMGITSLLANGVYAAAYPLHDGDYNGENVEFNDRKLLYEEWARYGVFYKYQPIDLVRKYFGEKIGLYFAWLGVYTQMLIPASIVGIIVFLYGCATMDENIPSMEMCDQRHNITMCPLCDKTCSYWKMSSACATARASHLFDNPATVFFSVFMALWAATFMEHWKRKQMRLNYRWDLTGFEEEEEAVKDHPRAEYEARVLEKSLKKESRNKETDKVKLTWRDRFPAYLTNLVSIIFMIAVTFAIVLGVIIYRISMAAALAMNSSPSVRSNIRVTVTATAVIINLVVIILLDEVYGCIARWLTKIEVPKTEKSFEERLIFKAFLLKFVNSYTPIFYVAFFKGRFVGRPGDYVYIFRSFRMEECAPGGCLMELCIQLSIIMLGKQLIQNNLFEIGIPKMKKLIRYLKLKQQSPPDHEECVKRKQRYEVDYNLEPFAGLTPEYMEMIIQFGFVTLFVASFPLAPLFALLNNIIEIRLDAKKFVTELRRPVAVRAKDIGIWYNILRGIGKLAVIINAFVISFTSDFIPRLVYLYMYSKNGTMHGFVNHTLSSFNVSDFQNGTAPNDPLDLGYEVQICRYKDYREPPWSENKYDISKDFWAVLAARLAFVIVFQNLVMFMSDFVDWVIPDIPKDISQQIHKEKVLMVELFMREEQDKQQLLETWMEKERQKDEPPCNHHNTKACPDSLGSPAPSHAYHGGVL
Fisher rat thyroid (FRT) cells stably expressing human TMEM16A (TMEM16Aabc variant; Dr Luis Galietta, Insituto Giannina, Italy) were cultured in T-75 flasks in Hams F-12 media with Coon's modification (Sigma) supplemented with 10% (v/v) foetal bovine serum, penicillin-streptomycin (10,000 U/mL/10000 μg/mL), G-418 (750 μg/mL), L-glutamine (2 mM) and sodium bicarbonate solution (7.5% v/v). At ˜90% confluence cells were harvested for experiments by detachment with a 2:1 (v/v) mixture of Detachin (BMS Biotechnology) and 0.25% (w/v) trypsin-EDTA. Cells were diluted to a density of 3.5-4.5×10^6 cells/mL with media consisting of CHO-S-SFM II (Sigma), 25 mM HEPES (Sigma) and Soy bean trypsin inhibitor (Sigma).
FRT-TMEM16A cells were whole-cell patch clamped using an automated planar patch clamp system (Qpatch, Sophion). Briefly, once high resistance (GOhm) seals were established between the cells and the planar recording array the patch was ruptured using suction pulses to establish the whole-cell recording configuration of the patch clamp technique. The assay employed the following solutions (all reagents Sigma): Intracellular solution (mM): N-methyl-D-glucamine 130, CaCl2 18.2, MgCl2 1, HEPES 10, EGTA 10, BAPTA 20, Mg-ATP 2, pH 7.25, 325 mOsm with sucrose.
Extracellular solution (mM): N-methyl-D-glucamine 130, CaCl2 2, MgCl2 1, HEPES 10, pH 7.3, 320 mOsm with sucrose.
The intracellular solution buffers intracellular calcium at levels required to give ˜20% activation of the maximal TMEM16A mediated current (EC20 for calcium ions). Cells were voltage clamped at a holding potential of −70 mV and a combined voltage step (to +70 mV)/ramp (−90 my to +90 mV) was applied at 0.05 Hz. After a period of current stabilisation test compounds, solubilised in 100% (v/v) DMSO and subsequently diluted into extracellular solution, were applied to generate a cumulative concentration response curve. Each concentration of test compound was incubated for 5 minutes before addition of the next concentration. After the final concentration was tested a supramaximal concentration of either a known active positive modulator or the TMEM16A inhibitor, CaCCinhA01 (Del La Fuente et al, 2008) was added to define the upper and lower limits of the assay.
Compound activity was quantified by measuring the increase in current upon compound addition and expressing this as a percentage increase of baseline TMEM16A current level. Percentage increases in current were determined for each concentration and the data plotted as a function of concentration using either the Qpatch software or Graphpad Prism v6.05 providing the concentration which gave 50% of its maximal effect (EC50) and maximum efficacy (percentage of baseline increase).
In FIG. 1, IBL equals baseline current, I[#1] equals the peak current during test compound concentration 1 incubation period and so on.
Peak TMEM16A current at +70 mV was plotted as a function of time over the assay period. Baseline current (IBL) was measured after a period of stabilisation. The increase in current for each compound addition was determined by taking the peak current during the incubation period and subtracting the current from the previous recording period and then expressing this as a percentage of the baseline current. […]

In general, EC50 refers to the concentration needed to bring the measured effect to its halfway point.

Consider `C#CC(C)(C)NC(=O)c1cc(NC(=O)Cc2ccc(C(C)(C)C)c(O)c2)ccn1` [Example 93.5, 4-[[2-(4-tert-Butyl-3-hydroxy-phenyl)acetyl]amino]-N-(1,1-dimethylprop-2-ynyl)pyridine-2-carboxamide], for which the “% Potentiation @ 3.33 μM Avg” value is listed as 136% and the EC50 was 20 nM.

As to `CC(C)(C)NC(=O)c1cc(NC(=O)Cc2cc(C(F)(F)F)ccc2O)ccn1` [Example 3.5b, N-tert-Butyl-4-[[2-[2-hydroxy-5-(trifluoromethyl)phenyl]acetyl]amino]pyridine-2-carboxamide], the “% Potentiation @ 3.33 μM Avg” value is 150% and the EC50 is 200 nM.

On to `C#CC(C)(C)NC(=O)c1cc(NC(=O)Cc2ccccc2Cl)ccn1` [Example 30.1, 4-[[2-(2-Chlorophenyl)acetyl]amino]-N-(1,1-dimethylprop-2-ynyl)pyridine-2-carboxamide], for which the “% Potentiation @ 3.33 μM Avg” value turned out to be 245% and the EC50 was 140 nM.

As for `CC(C)(C)NC(=O)c1cc(NC(=O)Cc2ccc(Cl)cc2O)ccn1` [Example 3.6b, N-tert-Butyl-4-[[2-(4-chloro-2-hydroxy-phenyl)acetyl]amino]pyridine-2-carboxamide], the “% Potentiation @ 3.33 μM Avg” value was found to be 205% and the EC50 was 120 nM.

As for `CC(C(=O)Nc1cccc(C(=O)NC(C)(C)C)c1)c1ccccc1O` (centres unmarked) [Example 2.7, N-tert-Butyl-3-[2-(2-hydroxyphenyl)propanamido]benzamide], the “% Potentiation @ 3.33 μM Avg” value is given as 51% and the EC50 is 8190 nM.

In the case of `CC(C)(CCO)NC(=O)c1cc(NC(=O)Cc2cc(Cl)ccc2O)ccn1` [Example 35.14, 4-[[2-(5-Chloro-2-hydroxy-phenyl)acetyl]amino]-N-(3-hydroxy-1,1-dimethyl-propyl)pyridine-2-carboxamide], the “% Potentiation @ 3.33 μM Avg” value turned out to be 172% and the EC50 is 270 nM.

As for `COc1ccc(CC(=O)Nc2cccc(C(=O)NC(C)(C)C)c2)c(O)c1` [Example 2.14, N-tert-Butyl-3-[[2-(2-hydroxy-4-methoxy-phenyl)acetyl]amino]benzamide], the “% Potentiation @ 3.33 μM Avg” value was found to be 100% and the EC50 is 1780 nM.

In the case of `CC(C)(C)NC(=O)CC(C)(C)NC(=O)c1cc(NC(=O)Cc2cc(Cl)ccc2O)ccn1` [Example 49, N-[3-(tert-Butylamino)-1,1-dimethyl-3-oxo-propyl]-4-[[2-(5-chloro-2-hydroxy-phenyl)acetyl]amino]pyridine-2-carboxamide], the “% Potentiation @ 3.33 μM Avg” value turned out to be 226% and the EC50 was 680 nM.

On to `CC(C)(C)NC(=O)c1cccc(NC(=O)Cc2cc(C(F)(F)F)ccc2O)c1` [Example 2.17, N-tert-Butyl-3-[[2-[2-hydroxy-5-(trifluoromethyl)phenyl]acetyl]amino]benzamide], for which the “% Potentiation @ 3.33 μM Avg” value is given as 172% and the EC50 was 270 nM.

Regarding `CCC(C)NC(=O)c1cc(NC(=O)Cc2cc(Cl)ccc2O)ccn1` (centres unmarked) [Example 7.13, 4-[[2-(5-Chloro-2-hydroxy-phenyl)acetyl]amino]-N-sec-butyl-pyridine-2-carboxamide], the “% Potentiation @ 3.33 μM Avg” value came out at 212% and the EC50 was 90 nM.

Consider `CC(C)(C)NC(=O)c1cc(NC(=O)Cc2cc(F)ccc2Cl)ccn1` [Example 40.1, N-tert-Butyl-4-[[2-(2-chloro-5-fluoro-phenyl)acetyl]amino] pyridine-2-carboxamide], for which the “% Potentiation @ 3.33 μM Avg” value stood at 91% and the EC50 is 870 nM.

Take `CC(C)(C)NC(=O)c1cccc(NC(=O)Cc2cc(Br)ccc2O)c1` [Example 2.10, 3-[[2-(5-Bromo-2-hydroxy-phenyl)acetyl]amino]-N-tert-butyl-benzamide]: the “% Potentiation @ 3.33 μM Avg” value stood at 133% and the EC50 is 460 nM.

In the case of `CC(C)(C)NC(=O)c1cc(NC(=O)Nc2c[nH]c3ccccc23)ccn1` [Example 64.6, N-tert-butyl-4-(1H-indol-3-ylcarbamoylamino)pyridine-2-carboxamide], the “% Potentiation @ 3.33 μM Avg” value stood at 0%.

In the case of `CC(C)(C#N)NC(=O)c1cc(NC(=O)c2cccc(C(F)(F)F)n2)ccn1` [Example 83.16, N-[2-[(1-Cyano-1-methyl-ethyl)carbamoyl]-4-pyridyl]-6-(trifluoromethyl)pyridine-2-carboxamide], the “% Potentiation @ 3.33 μM Avg” value amounted to 60%.

Consider `CC(C)(C)NC(=O)c1cc(NC(=O)Cc2ccc3nccnc3c2)ccn1` [Example 5.23, N-tert-Butyl-4-[(2-quinoxalin-6-ylacetyl)amino]pyridine-2-carboxamide], for which the “% Potentiation @ 3.33 μM Avg” value amounted to 144% and the EC50 was 1200 nM.

As to `CC(C)c1cc(Cl)cc(CC(=O)Nc2ccnc(C(=O)NC(C)(C)C)c2)c1O` [Example 61, N-tert-Butyl-4-[[2-(5-chloro-2-hydroxy-3-isopropyl-phenyl)acetyl]amino]pyridine-2-carboxamide], the “% Potentiation @ 3.33 μM Avg” value was 85%.

As to `O=C(Cc1cc(Cl)ccc1O)Nc1ccnc(C(=O)NCc2ccccc2)c1` [Example 35.15, N-Benzyl-4-[[2-(5-chloro-2-hydroxy-phenyl)acetyl]amino]pyridine-2-carboxamide], the “% Potentiation @ 3.33 μM Avg” value is listed as 158% and the EC50 was 150 nM.

Turning to `C[C@](C#N)(CO)NC(=O)c1cc(NC(=O)Cc2cc(Cl)ccc2O)ccn1` (single isomer, unassigned) [Example 46a, 4-[[2-(5-Chloro-2-hydroxy-phenyl)acetyl]amino]-N-[(1S)-1-cyano-2-hydroxy-1-methyl-ethyl]pyridine-2-carboxamide or 4-[[2-(5-chloro-2-hydroxy-phenyl)acetyl]amino]-N-[(1R)-1-cyano-2-hydroxy-1-methyl-ethyl]pyridine-2-carboxamide], the “% Potentiation @ 3.33 μM Avg” value is listed as 249% and the EC50 is 110 nM.

On to `CC(C)(C)NC(=O)c1cc(NC(=O)Cc2cc(O)ccc2F)ccn1` [Example 3.13b, N-tert-butyl-4-[[2-(2-fluoro-5-hydroxy-phenyl)acetyl]amino]pyridine-2-carboxamide], for which the “% Potentiation @ 3.33 μM Avg” value was 179% and the EC50 is 250 nM.

As for `CC(C)(C)NC(=O)c1cc(NC(=O)NCc2ccccc2O)ccn1` [Example 65.2, N-tert-Butyl-4-[(2-hydroxyphenyl)methylcarbamoylamino]pyridine-2-carboxamide], the “% Potentiation @ 3.33 μM Avg” value is given as 73% and the EC50 was 480 nM.

`CC(C)(C)NC(=O)c1cc(NC(=O)Cc2ccccc2C(F)(F)F)ccn1` [Example 23.12, N-tert-Butyl-4-[[2-[2-(trifluoromethyl)phenyl]acetyl]amino]pyridine-2-carboxamide]: the “% Potentiation @ 3.33 μM Avg” value worked out at 197% and the EC50 is 330 nM.

For the molecule `CC(C)(C)NC(=O)c1cc(NC(=O)Cc2cc(Cl)ccc2O)ncn1` [Example 85, N-tert-Butyl-6-[[2-(5-chloro-2-hydroxy-phenyl)acetyl]amino] pyrimidine-4-carboxamide], the “% Potentiation @ 3.33 μM Avg” value came to 155% and the EC50 was 350 nM.

Take `CC(C)(C)NC(=O)c1cc(NC(=O)Cc2cccnc2Cl)ccn1` [Example 5.16, N-tert-Butyl-4-[[2-(2-chloro-3-pyridyl)acetyl]amino]pyridine-2-carboxamide]: the “% Potentiation @ 3.33 μM Avg” value was 110%.

Take `O=C(Cc1ccccc1F)Nc1ccnc(C(=O)NC23CCC(F)(C2)C3)c1` [Example 60, N-(4-Fluoro-1-bicyclo[2.1.1]hexanyl)-4-[[2-(2-fluorophenyl)acetyl]amino]pyridine-2-carboxamide]: the “% Potentiation @ 3.33 μM Avg” value turned out to be 126% and the EC50 is 350 nM.
